Data published in patent publication US20150157021A1, “NEW ANTIFUNGAL COMPOSITIONS” (DSM IP ASSETS B.V., priority 2012, published 2015).

Columns and labels:
Assay type in all cases: in vivo
Penicillium italicum = assay: Treatment of wounded oranges inoculated with Penicillium italicum (Examples 7, 8); details: 20° C.
Description: Ten fresh, organic oranges were used per treatment. Each orange was soaked in a 180 ppm hypochlorite solution for 10 minutes, then rinsed thoroughly with fresh tap water and dried. The peel of each disinfected orange was wounded once using a cork borer according to the method described by de Lapeyre de Bellaire and Dubois (1987). Subsequently, each wound was inoculated with 10 μl of a Penicillium italicum suspension containing 1×10^5 of spores/ml. After incubation for 3 hours at 20° C., each wound and the orange peel area of 1 cm around the wound was treated with in total 150 μl of a freshly prepared aqueous antifungal composition comprising either 500 ppm natamycin (DSM Food Specialties, Delft, The Netherlands), 800 ppm boscalid or both. Each antifungal composition also comprised 3.2% (w/w) beeswax, 0.8% (w/w) glycerol, 0.7% (w/w) polyoxyethylene sorbitan monostearate (Tween 60), 0.2% (w/w) polyoxyethylene sorbitan monooleate (Tween 80), 0.05% (w/w) methylhydroxyethyl-cellulose (MHEC), 0.03% (w/w) anti-foaming agent, 0.02% (w/w) xanthan gum, 0.02% (w/w) citric acid, 0.01% (w/w) lactic acid and 0.01% potassium sorbate. A composition without natamycin or boscalid was used as control. […] The treated oranges were incubated in a closed box in the dark at 20° C. and assessed on mould growth during a 17-day incubation period. The antifungal activity (in %) of the individual and combined active ingredients was determined by calculating the reduction in mould growth observed on the oranges treated with the antifungal composition in comparison to the mould growth on the oranges treated with the control composition according to the Colby method (Colby, 1967) described in Example 5.
The experiment was conducted as described in Example 7, except for the fact that each wounded and inoculated orange was treated with 150 μl of a freshly prepared aqueous antifungal composition comprising either 250 ppm natamycin (DSM Food Specialties, Delft, The Netherlands), 400 ppm boscalid or both. The treated oranges were incubated in a closed box in the dark at 20° C. and assessed on mould growth during a 18-day incubation period. During incubation, the treated oranges were assessed on mould growth according to the method described in Example 7.

Botrytis cinerea [1] = assay: Treatment of wounded sweet peppers inoculated with Botrytis cinerea (Examples 9, 10); details: 20° C., 400 ppm natamycin
Description: Ten fresh, organic sweet peppers were used per treatment. Each sweet pepper was soaked in a 180 ppm hypochlorite solution for 10 minutes, then rinsed thoroughly with fresh tap water and dried. The peel of each disinfected sweet pepper was wounded once using a cork borer according to the method described by de Lapeyre de Bellaire and Dubois (1987). Subsequently, each wound was inoculated with 10 μl of a Botrytis cinerea suspension containing 1×10^5 of spores/ml. After incubation for 3 hours at 20° C., each wound and the skin area of 0.5 cm around the wound was treated with in total 75 μl of a freshly prepared aqueous antifungal composition comprising either 400 ppm natamycin (DSM Food Specialties, Delft, The Netherlands), 600 ppm fenhexamid or both. Each antifungal composition also comprised 3.2% (w/w) beeswax, 0.8% (w/w) glycerol, 0.7% (w/w) polyoxyethylene sorbitan monostearate (Tween 60), 0.2% (w/w) polyoxyethylene sorbitan monooleate (Tween 80), 0.05% (w/w) methylhydroxyethyl-cellulose (MHEC), 0.03% (w/w) anti-foaming agent, 0.02% (w/w) xanthan gum, 0.02% (w/w) citric acid, 0.01% (w/w) lactic acid and 0.01% potassium sorbate. A composition without natamycin or fenhexamid was used as control.
The treated sweet peppers were incubated in a closed box in the dark at 20° C. and assessed on mould growth during a 26-day incubation period. The antifungal activity (in %) of the individual and combined active ingredients was determined by calculating the reduction in mould growth observed on the sweet peppers treated with the antifungal composition in comparison to the mould growth on the sweet peppers treated with the control composition according to the Colby method (Colby, 1967) described in Example 5.
The experiment was conducted as described in Example 9, except for the fact that each wounded and inoculated sweet pepper was treated with 75 μl of a freshly prepared aqueous antifungal composition comprising either 400 ppm natamycin (DSM Food Specialties, Delft, The Netherlands), 800 ppm carboxin or both. The treated sweet peppers were incubated in a closed box in the dark at 20° C. and assessed on mould growth during a 26-day incubation period. During incubation, the treated sweet peppers were assessed on mould growth according to the method described in Example 9.

Botrytis cinerea [2] = assay: Treatment of wounded strawberries inoculated with Botrytis cinerea (Examples 5, 6); details: for Observed antifungal activity O (%): strawberries, 20° C.
Description: Twelve fresh, organic strawberries were used per treatment. Each strawberry was wounded with a 0.5 mm long cut and each wound was inoculated with 10 μl of a Botrytis cinerea suspension containing 1×10^5 of spores/ml. After a 3-hour incubation period at 20° C., each strawberry was dipped individually for 1 minute in a freshly prepared aqueous antifungal composition comprising either 500 ppm natamycin (DSM Food Specialties, Delft, The Netherlands), 500 ppm fenhexamid or both. Each antifungal composition also comprised 3.2% (w/w) beeswax, 0.8% (w/w) glycerol, 0.7% (w/w) polyoxyethylene sorbitan monostearate (Tween 60), 0.1% (w/w) polyoxyethylene sorbitan monooleate (Tween 80), 0.05% (w/w) methylhydroxyethyl-cellulose (MHEC), 0.03% (w/w) anti-foaming agent, 0.02% (w/w) xanthan gum, 0.02% (w/w) citric acid, 0.01% (w/w) lactic acid and 0.01% potassium sorbate. A composition without natamycin or fenhexamid was used as control. […] The treated strawberries were incubated in a closed box in the dark at 20° C. for 11 days.
The expected antifungal activity (E in %) of the combined antifungal composition comprising both active ingredients was calculated according to the Colby equation (Colby, 1967): […]
wherein X and Y are the observed antifungal activities (in %) of the individual active ingredients X and Y, respectively.
The experiment was conducted as described in Example 5, except for the fact that each wounded and inoculated strawberry was dipped individually for 1 minute in a freshly prepared aqueous antifungal composition comprising either 250 ppm natamycin (DSM Food Specialties, Delft, The Netherlands), 250 ppm fenhexamid or both. The treated strawberries were incubated in a closed box in the dark at 20° C. for 10 days. During incubation, the treated strawberries were assessed on mould growth according to the two methods described in Example 5.

## O=C(Nc1ccccc1-c1ccc(Cl)cc1)c1cccnc1Cl [Boscalid, boscalid]
Penicillium italicum; 7 days, 500 ppm natamycin, 800 ppm boscalid or both
  Observed antifungal activity O (%): 54%
Penicillium italicum; 8 days, 500 ppm natamycin, 800 ppm boscalid or both
  Observed antifungal activity O (%): 40%
Penicillium italicum; 9 days, 500 ppm natamycin, 800 ppm boscalid or both
  Observed antifungal activity O (%): 39%
Penicillium italicum; 10 days, 500 ppm natamycin, 800 ppm boscalid or both
  Observed antifungal activity O (%): 29%
Penicillium italicum; 11 days, 250 ppm natamycin, 400 ppm boscalid or both
  Observed antifungal activity O (%): 35%
Penicillium italicum; 11 days, 500 ppm natamycin, 800 ppm boscalid or both
  Observed antifungal activity O (%): 35%
Penicillium italicum; 12 days, 250 ppm natamycin, 400 ppm boscalid or both
  Observed antifungal activity O (%): 22%
Penicillium italicum; 12 days, 500 ppm natamycin, 800 ppm boscalid or both
  Observed antifungal activity O (%): 18%
Penicillium italicum; 13 days, 250 ppm natamycin, 400 ppm boscalid or both
  Observed antifungal activity O (%): 24%
Penicillium italicum; 13 days, 500 ppm natamycin, 800 ppm boscalid or both
  Observed antifungal activity O (%): 20%
Penicillium italicum; 14 days, 250 ppm natamycin, 400 ppm boscalid or both
  Observed antifungal activity O (%): 15%
Penicillium italicum; 14 days, 500 ppm natamycin, 800 ppm boscalid or both
  Observed antifungal activity O (%): 8%
Penicillium italicum; 15 days, 250 ppm natamycin, 400 ppm boscalid or both
  Observed antifungal activity O (%): 10%
Penicillium italicum; 15 days, 500 ppm natamycin, 800 ppm boscalid or both
  Observed antifungal activity O (%): 8%
Penicillium italicum; 17 days, 250 ppm natamycin, 400 ppm boscalid or both
  Observed antifungal activity O (%): 6%
Penicillium italicum; 17 days, 500 ppm natamycin, 800 ppm boscalid or both
  Observed antifungal activity O (%): 0%
Penicillium italicum; 18 days, 250 ppm natamycin, 400 ppm boscalid or both
  Observed antifungal activity O (%): 1%

## CC1=C(C(=O)Nc2ccccc2)SCCO1 [Carboxin, carboxin]
Botrytis cinerea [1]; 17-19 days, 800 ppm carboxin or both
  Observed antifungal activity O (%): 67%
Botrytis cinerea [1]; 20-21 days, 800 ppm carboxin or both
  Observed antifungal activity O (%): 55%
Botrytis cinerea [1]; 22 days, 800 ppm carboxin or both
  Observed antifungal activity O (%): 45%
Botrytis cinerea [1]; 24 days, 800 ppm carboxin or both
  Observed antifungal activity O (%): 42%
Botrytis cinerea [1]; 25 days, 800 ppm carboxin or both
  Observed antifungal activity O (%): 41%
Botrytis cinerea [1]; 26 days, 800 ppm carboxin or both
  Observed antifungal activity O (%): 38%

## CC1(C(=O)Nc2ccc(O)c(Cl)c2Cl)CCCCC1 [Fenhexamid, fenhexamid]
Botrytis cinerea [2]; Day 5, 20° C., 250 ppm natamycin, 250 ppm fenhexamid or both
  Number of moulded strawberries/total number of 12 strawberries: 11/12
Botrytis cinerea [2]; Day 5, 20° C., 250 ppm natamycin, 250 ppm fenhexamid or both, listed as fenhexamid
  Number of moulded strawberries/total number of 12 strawberries: 11
Botrytis cinerea [2]; Day 6, 20° C., 500 ppm natamycin, 500 ppm fenhexamid or both
  Number of moulded strawberries/total number of 12 strawberries: 12/12
Botrytis cinerea [2]; Day 6-7, 20° C., 250 ppm natamycin, 250 ppm fenhexamid or both
  Number of moulded strawberries/total number of 12 strawberries: 11/12
Botrytis cinerea [2]; Day 6-7, 20° C., 250 ppm natamycin, 250 ppm fenhexamid or both, listed as fenhexamid
  Number of moulded strawberries/total number of 12 strawberries: 11
Botrytis cinerea [2]; Day 7-8, 20° C., 500 ppm natamycin, 500 ppm fenhexamid or both
  Number of moulded strawberries/total number of 12 strawberries: 12/12
Botrytis cinerea [2]; Day 8, 20° C., 250 ppm natamycin, 250 ppm fenhexamid or both
  Number of moulded strawberries/total number of 12 strawberries: 12/12
Botrytis cinerea [2]; Day 8, 20° C., 250 ppm natamycin, 250 ppm fenhexamid or both, listed as fenhexamid
  Number of moulded strawberries/total number of 12 strawberries: 12
Botrytis cinerea [2]; Day 9, 20° C., 500 ppm natamycin, 500 ppm fenhexamid or both
  Number of moulded strawberries/total number of 12 strawberries: 12/12
Botrytis cinerea [2]; after 6 through 9 days of incubation, 500 ppm natamycin alone or 500 ppm fenhexamid alone
  Number of moulded strawberries of 12: 12
Botrytis cinerea [2]; 4 days, 500 ppm natamycin, 500 ppm fenhexamid or both
  Observed antifungal activity O (%): 22%
Botrytis cinerea [2]; 5 days, 500 ppm natamycin, 500 ppm fenhexamid or both
  Observed antifungal activity O (%): 25%
Botrytis cinerea [2]; 6 days, 500 ppm natamycin, 500 ppm fenhexamid or both
  Observed antifungal activity O (%): 0%
Botrytis cinerea [2]; 7 days, 500 ppm natamycin, 500 ppm fenhexamid or both
  Observed antifungal activity O (%): 0%
Botrytis cinerea [2]; 8 days, 250 ppm natamycin, 250 ppm fenhexamid or both
  Observed antifungal activity O (%): 7.5%
Botrytis cinerea [2]; 8 days, 500 ppm natamycin, 500 ppm fenhexamid or both
  Observed antifungal activity O (%): 0%
Botrytis cinerea [2]; 9 days, 250 ppm natamycin, 250 ppm fenhexamid or both
  Observed antifungal activity O (%): 0%
Botrytis cinerea [2]; 9 days, 500 ppm natamycin, 500 ppm fenhexamid or both
  Observed antifungal activity O (%): 0%
Botrytis cinerea [2]; 10 days, 250 ppm natamycin, 250 ppm fenhexamid or both
  Observed antifungal activity O (%): 0%
Botrytis cinerea [2]; 10 days, 500 ppm natamycin, 500 ppm fenhexamid or both
  Observed antifungal activity O (%): 0%
Botrytis cinerea [2]; 11 days, 500 ppm natamycin, 500 ppm fenhexamid or both
  Observed antifungal activity O (%): 0%
Botrytis cinerea [1]; 13-17 days, 600 ppm fenhexamid or both
  Observed antifungal activity O (%): 0%
Botrytis cinerea [1]; 18-22 days, 600 ppm fenhexamid or both
  Observed antifungal activity O (%): 0%
Botrytis cinerea [1]; 6 days, 600 ppm fenhexamid or both
  Observed antifungal activity O (%): 0%
Botrytis cinerea [1]; 8 days, 600 ppm fenhexamid or both
  Observed antifungal activity O (%): 0%
Botrytis cinerea [1]; 10 days, 600 ppm fenhexamid or both
  Observed antifungal activity O (%): 00%
Botrytis cinerea [1]; 11 days, 600 ppm fenhexamid or both
  Observed antifungal activity O (%): 0%
Botrytis cinerea [1]; 24 days, 600 ppm fenhexamid or both
  Observed antifungal activity O (%): 0%
Botrytis cinerea [1]; 25 days, 600 ppm fenhexamid or both
  Observed antifungal activity O (%): 0%
Botrytis cinerea [1]; 26 days, 600 ppm fenhexamid or both
  Observed antifungal activity O (%): 0%
